Key:
[1] = test system: human prostate cancer cells (PC3); assay: Cytotoxicity by SRB assay, PC3 cells; assay type: cell-based; conditions: androgen-independent metastatic human prostate cancer cells (PC3), 72 h, 0.01 μM to 100 μM
Method: (§1) The human prostate cancer cells (PC3) and human osteosarcoma cells (MG-63) were obtained from Nawah Scientific Inc. (Mokatam, Cairo, Egypt) and cultured in DMEM (Dulbecco's modified eagle's medium), Gibco, USA, supplemented with fetal bovine serum (FBS) at a concentration of 10% and 100 U/mL of penicillin and streptomycin (PS). The Cells were incubated at 37° C. in a humidified environment that contained 5% CO2.
(§2) Cells were seeded in 96-well plates as aliquots of 100 μL cell suspension and incubated in a complete media for 24 h. afterward, cells were treated with N′-(1-naphthoyloxy)-2-(benzo[d]thiazol-2-yl)acetimidamide at diverse concentrations ranging from 0.01 μM to 100 μM for 72 h. Then, cells were fixed at 4° C. for one hour with 150 μL of 10% trichloroacetic acid (TCA). After washing the cells five times with distilled water, 70 μL of sulforhodamine (SRB) solution (0.4% w/v) was added and incubated for 10 min at room temperature in a dark place. […] Then, 150 μL of Tris pH 10.5 (10 mM) was added, and the absorbance was measured at 540 nm using a BMG LABTECH®-FLUOstar Omega microplate reader (Ortenberg, Germany). Half maximal inhibitory concentrations (IC50) values were calculated for each experiment using GraphPad Prism 6 software. […]
(§3) The inhibition was calculated using the following equation: Inhibition %=100−Average Viability

[2] = test system: human osteosarcoma cells (MG-63); assay: Cytotoxicity by SRB assay, MG-63 cells; assay type: cell-based; conditions: osteosarcoma (MG-63) cells, 72 h, 0.01 μM to 100 μM
Method: as §1, §2, §3

Bovine Serum Albumin = Bovine Serum Albumin (Bos taurus, UniProt P02769); assay: Bovine Serum Albumin Assay (BSA), inhibition of protein denaturation; assay type: biochemical; conditions: BSA 0.4% w/v, pH 6.4, 72° C. for 10 minutes, 20-100 μg/mL, turbidity at 660 nm
Chain of Bovine Serum Albumin (P02769 25-607): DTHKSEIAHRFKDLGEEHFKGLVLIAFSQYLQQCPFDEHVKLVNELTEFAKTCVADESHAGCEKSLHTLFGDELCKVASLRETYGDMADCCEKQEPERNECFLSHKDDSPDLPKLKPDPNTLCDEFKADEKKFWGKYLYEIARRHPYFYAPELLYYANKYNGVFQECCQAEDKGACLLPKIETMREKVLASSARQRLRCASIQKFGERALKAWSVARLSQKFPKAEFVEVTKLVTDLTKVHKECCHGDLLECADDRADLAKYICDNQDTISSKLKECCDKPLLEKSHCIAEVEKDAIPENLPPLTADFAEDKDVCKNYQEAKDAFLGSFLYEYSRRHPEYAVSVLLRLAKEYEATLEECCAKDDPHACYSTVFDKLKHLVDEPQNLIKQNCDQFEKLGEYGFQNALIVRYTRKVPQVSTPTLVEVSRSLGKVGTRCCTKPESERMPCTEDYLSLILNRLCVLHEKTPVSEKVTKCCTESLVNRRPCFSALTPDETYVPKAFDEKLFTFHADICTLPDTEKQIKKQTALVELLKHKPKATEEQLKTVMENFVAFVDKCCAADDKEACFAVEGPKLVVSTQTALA
Method: In vitro-inflammatory activities of the tested samples were determined using a modified method of the BSA assay reported by Williams et al. BSA solution (0.4%, w/v) was prepared in Tris Buffered Saline. The pH was adjusted to 6.4 with glacial acetic acid. Different dilutions of 20, 40, 60, 80, and 100 μg/mL of the stock solutions were added to test tubes containing 1 mL of 0.4%, w/v BSA buffer solution. Both negative (solvent) and positive (aspirin) controls were assayed in a similar manner. The solutions were then heated in a water bath at 72° C. for 10 minutes and cooled for 20 minutes under laboratory conditions. The turbidity of the solutions (level of protein precipitation) was measured at 660 nm in Spectrophotometer (V-770 UV-Visible/NIR Spectrophotometer).
The percentage inhibition of precipitation (protein denaturation) was determined relative to the negative control using the following equation:
[formula] % Anti-Denaturation Activity=% Inhibition of Protein Denaturation=% Anti-inflammatory Activity

In the case of `COc1ccc(/C=N/c2nn(CN3CCN(c4cc5c(cc4F)c(=O)c(C(=O)O)cn5C4CC4)CC3)c(=S)s2)cc1` [1-cyclopropyl-6-fluoro-7-(4-((5-(4-methoxybenzylideneamino)-2-thioxo-1,3,4-thiadiazol-3(2H)-yl)methyl)piperazin-1-yl)-4-oxo-1,4-dihydroquinoline-3-carboxylic acid], the “antiproliferative activity against PC3 cells” value [1] is reported as “excellent antiproliferative activities”, the “antiproliferative activity against MG-63 cells” value [2] is reported as “excellent antiproliferative activities” and the “in vitro anti-inflammatory activity (inhibition of protein denaturation)” value (Bovine Serum Albumin) is reported as “considerable anti-inflammatory effect”.

From patent publication US12187718B1, “1-cyclopropyl-6-fluoro-7-(4-((5-(4-methoxybenzylideneamino)-2-thioxo-1,3,4-thiadiazol-3(2H)-yl)methyl)piperazin-1-yl)-4-oxo-1,4-dihydroquinoline-3-carboxylic acid as an anti-inflammatory and anticancer compound” (KING FAISAL UNIVERSITY, priority 2023, dated 2025)
